How the values were obtained:
Carbonic anhydrase 2 = Carbonic anhydrase 2 (Homo sapiens, UniProt P00918)
Description: Inhibitory activity against human Carbonic anhydrase II

Carbonic anhydrase 1 = Carbonic anhydrase 1 (Homo sapiens, UniProt P00915)
Sequence of Carbonic anhydrase 1 (P00915 whole entry): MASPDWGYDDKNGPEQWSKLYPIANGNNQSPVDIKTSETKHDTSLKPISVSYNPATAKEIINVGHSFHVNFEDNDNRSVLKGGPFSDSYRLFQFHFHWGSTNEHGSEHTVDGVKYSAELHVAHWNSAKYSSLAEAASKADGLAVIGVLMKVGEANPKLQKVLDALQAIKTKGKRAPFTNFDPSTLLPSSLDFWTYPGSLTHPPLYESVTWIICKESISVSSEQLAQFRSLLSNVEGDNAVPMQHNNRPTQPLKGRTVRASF
Description: Inhibitory activity against human Carbonic anhydrase I

Row | Compound | Ki (Carbonic anhydrase 2) | Ki (Carbonic anhydrase 1)
1 | NC(=O)CC[C@H](NC(=S)Nc1ccc(S(N)(=O)=O)cc1)C(=O)O | 9 nM | 40 nM
2 | CNC(=O)COC(=O)[C@H](Cc1c[nH]c2ccccc12)NC(=S)Nc1ccc(S(N)(=O)=O)cc1 | 20 nM | 64 nM
3 | CNC(=O)COC(=O)[C@H](Cc1ccccc1)NC(=S)Nc1ccc(S(N)(=O)=O)cc1 | 8 nM | 42 nM
4 | CC(C)[C@H](NC(=S)Nc1ccc(S(N)(=O)=O)cc1)C(=O)O | 5 nM | 23 nM
5 | CC(C)C[C@H](NC(=S)Nc1ccc(S(N)(=O)=O)cc1)C(=O)O | 5 nM | 21 nM
6 | NS(=O)(=O)c1ccc(NC(=S)N[C@@H](Cc2c[nH]c3ccccc23)C(=O)O)cc1 | 11 nM | 47 nM
7 | CNC(=O)COc1ccc(COC(=O)[C@H](C)NC(=S)Nc2ccc(S(N)(=O)=O)cc2)cc1 | 16 nM | 58 nM
8 | NS(=O)(=O)c1ccc(N/C(S)=N/[C@@H](Cc2ccccc2)C(=O)O)cc1 | 6 nM | 30 nM
9 | C[C@H](NC(=S)Nc1ccc(S(N)(=O)=O)cc1)C(=O)O | 12 nM | 54 nM
10 | CC[C@H](C)[C@H](NC(=S)Nc1ccc(S(N)(=O)=O)cc1)C(=O)O | 4 nM | 22 nM
11 | CNC(=O)COC(=O)[C@@H]1CCCN1/C(S)=N\c1ccc(S(N)(=O)=O)cc1 | 46 nM | 197 nM
12 | NS(=O)(=O)c1ccc(NC(=S)N2CCC[C@H]2C(=O)O)cc1 | 25 nM | 110 nM

Results, then the compound that gave them:

Row | Ki (Carbonic anhydrase 2) | Ki (Carbonic anhydrase 1) | Compound
13 | 11 nM | 53 nM | CNC(=O)COC(=O)[C@H](CCC(N)=O)/N=C(\S)Nc1ccc(S(N)(=O)=O)cc1
14 | 5 nM | 31 nM | CNC(=O)COC(=O)[C@H](CCSC)NC(=S)Nc1ccc(S(N)(=O)=O)cc1
15 | 5 nM | 31 nM | CNC(=O)COC(=O)[C@@H](/N=C(\S)Nc1ccc(S(N)(=O)=O)cc1)C(C)C
16 | 5 nM | 25 nM | CC[C@H](C)[C@H](/N=C(\S)Nc1ccc(S(N)(=O)=O)cc1)C(=O)OCC(=O)NC
17 | 7 nM | 23 nM | CNC(=O)COC(=O)[C@H](CC(C)C)/N=C(\S)Nc1ccc(S(N)(=O)=O)cc1
18 | 6 nM | 27 nM | NC(=O)C[C@H](/N=C(\S)Nc1ccc(S(N)(=O)=O)cc1)C(=O)O
19 | 4 nM | 27 nM | CSCC[C@H](/N=C(\S)Nc1ccc(S(N)(=O)=O)cc1)C(=O)O
20 | 4 nM | 29 nM | CNC(=O)COC(=O)[C@H](CC(N)=O)/N=C(\S)Nc1ccc(S(N)(=O)=O)cc1

From ChEMBL document CHEMBL1137219, “Carbonic anhydrase inhibitors: the first on-resin screening of a 4-sulfamoylphenylthiourea library” (J Med Chem, 2004)
